Results published in patent US8921376B2, “Pyrrolopyridines useful as inhibitors of protein kinase” (Vertex Pharmaceuticals Incorporated, priority 2005, dated 2014).

Key:
Type in all cases: biochemical
Conditions in all cases: Table 6; enzyme inhibition data (Ki)
JAK2 = JAK2 (Homo sapiens, UniProt O60674); assay: JAK2 inhibition assay (as Example 3 with JAK-2 enzyme)
In short: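 Radiometric JAK2 kinase assay: poly(Glu)4Tyr substrate at final 15 μM, ATP at final 12 μM with [33P]; buffer 100 mM HEPES pH 7.4, 1 mM DTT, 10 mM MgCl2, 25 mM NaCl, 0.01% BSA. 20 min at 25 °C, TCA-stopped, 33P incorporation counted after filter capture.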

ROCK I = ROCK I (Homo sapiens, UniProt Q13464); assay: ROCK-I inhibition assay (radioactive enzyme assay, MBP substrate)
In short: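 Human ROCK at 5 nM phosphorylated 27 μM myelin basic protein with 13 μM [γ-33P]ATP (final) in HEPES pH 7.5, MgCl2, NaCl, DTT and 1.5% DMSO. Reactions ran 2 h at room temperature before TCA quench and filter-plate scintillation counting. After background subtraction, data were fit to give Ki(app).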

JAK3 = biological target: T1, JAK3 (Homo sapiens, UniProt P52333); assay: JAK3 inhibition assay (33P incorporation into poly(Glu)4Tyr)
T1 sequence (P52333 1-1124): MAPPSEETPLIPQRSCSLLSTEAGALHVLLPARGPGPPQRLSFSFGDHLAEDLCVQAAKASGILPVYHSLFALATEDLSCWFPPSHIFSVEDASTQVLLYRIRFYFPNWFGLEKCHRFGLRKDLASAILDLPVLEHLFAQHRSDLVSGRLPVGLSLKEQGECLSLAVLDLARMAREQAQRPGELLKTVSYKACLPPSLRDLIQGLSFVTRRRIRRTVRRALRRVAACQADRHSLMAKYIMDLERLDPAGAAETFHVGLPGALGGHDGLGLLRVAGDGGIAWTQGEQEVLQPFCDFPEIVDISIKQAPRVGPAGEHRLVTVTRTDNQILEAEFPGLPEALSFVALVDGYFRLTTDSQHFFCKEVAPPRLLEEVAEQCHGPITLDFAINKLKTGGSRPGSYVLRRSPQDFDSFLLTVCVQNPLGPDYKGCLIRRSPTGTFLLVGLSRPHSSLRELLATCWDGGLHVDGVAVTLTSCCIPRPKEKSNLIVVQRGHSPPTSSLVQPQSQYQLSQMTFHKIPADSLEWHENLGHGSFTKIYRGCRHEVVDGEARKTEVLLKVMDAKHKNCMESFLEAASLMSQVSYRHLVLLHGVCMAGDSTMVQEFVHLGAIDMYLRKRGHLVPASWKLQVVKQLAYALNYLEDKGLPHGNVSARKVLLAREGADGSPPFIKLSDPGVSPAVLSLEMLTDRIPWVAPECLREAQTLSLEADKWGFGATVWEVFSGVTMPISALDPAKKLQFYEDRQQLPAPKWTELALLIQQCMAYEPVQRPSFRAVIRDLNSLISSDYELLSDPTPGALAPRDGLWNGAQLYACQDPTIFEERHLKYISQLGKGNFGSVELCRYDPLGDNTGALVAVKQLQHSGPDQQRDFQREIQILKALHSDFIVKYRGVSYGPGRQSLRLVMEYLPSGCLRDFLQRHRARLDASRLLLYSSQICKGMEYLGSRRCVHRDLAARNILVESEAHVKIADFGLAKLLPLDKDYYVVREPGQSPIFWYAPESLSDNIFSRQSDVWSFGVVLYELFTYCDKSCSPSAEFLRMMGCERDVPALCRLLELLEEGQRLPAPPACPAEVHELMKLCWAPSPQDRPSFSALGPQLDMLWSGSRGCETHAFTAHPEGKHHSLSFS
In short: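 Human JAK3 at 1 nM phosphorylated 1 μM poly(Glu)4Tyr using 5 μM [33P]ATP in HEPES pH 7.4 buffer with MgCl2, DTT and BSA. Reactions ran 20 min at 25° C. and were stopped with TCA. 33P incorporation was measured by scintillation after glass-fiber filter capture.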

JAK2, sequence (O60674 whole entry): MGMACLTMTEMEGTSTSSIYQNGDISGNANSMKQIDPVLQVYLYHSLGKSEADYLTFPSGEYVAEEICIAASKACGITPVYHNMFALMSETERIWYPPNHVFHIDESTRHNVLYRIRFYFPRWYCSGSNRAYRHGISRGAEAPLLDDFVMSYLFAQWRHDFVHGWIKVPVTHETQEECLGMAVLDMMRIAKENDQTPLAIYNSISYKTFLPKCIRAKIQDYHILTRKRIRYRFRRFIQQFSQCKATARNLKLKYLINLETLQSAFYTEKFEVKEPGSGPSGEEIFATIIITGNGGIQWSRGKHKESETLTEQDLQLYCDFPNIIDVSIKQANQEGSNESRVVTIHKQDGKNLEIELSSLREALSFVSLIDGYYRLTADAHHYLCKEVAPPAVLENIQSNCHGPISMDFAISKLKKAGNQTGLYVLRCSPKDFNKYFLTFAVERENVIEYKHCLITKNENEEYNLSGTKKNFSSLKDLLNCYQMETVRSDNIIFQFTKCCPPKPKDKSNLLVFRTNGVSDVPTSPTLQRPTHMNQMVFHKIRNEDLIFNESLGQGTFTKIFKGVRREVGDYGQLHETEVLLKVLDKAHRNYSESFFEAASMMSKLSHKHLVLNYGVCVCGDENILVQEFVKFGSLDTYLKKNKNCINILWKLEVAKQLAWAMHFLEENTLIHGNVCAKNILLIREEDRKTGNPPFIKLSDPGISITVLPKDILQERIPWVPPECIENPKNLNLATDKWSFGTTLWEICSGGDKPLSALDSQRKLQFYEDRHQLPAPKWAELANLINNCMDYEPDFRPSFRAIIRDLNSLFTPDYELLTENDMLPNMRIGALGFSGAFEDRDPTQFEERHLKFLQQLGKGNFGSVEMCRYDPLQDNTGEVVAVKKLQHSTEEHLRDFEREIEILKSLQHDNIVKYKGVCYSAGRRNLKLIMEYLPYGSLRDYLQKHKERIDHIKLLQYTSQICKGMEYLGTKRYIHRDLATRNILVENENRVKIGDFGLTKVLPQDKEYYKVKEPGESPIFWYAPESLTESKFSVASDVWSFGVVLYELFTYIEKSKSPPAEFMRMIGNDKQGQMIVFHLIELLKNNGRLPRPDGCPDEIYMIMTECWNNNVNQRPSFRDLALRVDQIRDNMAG
ROCK I, sequence (Q13464 whole entry): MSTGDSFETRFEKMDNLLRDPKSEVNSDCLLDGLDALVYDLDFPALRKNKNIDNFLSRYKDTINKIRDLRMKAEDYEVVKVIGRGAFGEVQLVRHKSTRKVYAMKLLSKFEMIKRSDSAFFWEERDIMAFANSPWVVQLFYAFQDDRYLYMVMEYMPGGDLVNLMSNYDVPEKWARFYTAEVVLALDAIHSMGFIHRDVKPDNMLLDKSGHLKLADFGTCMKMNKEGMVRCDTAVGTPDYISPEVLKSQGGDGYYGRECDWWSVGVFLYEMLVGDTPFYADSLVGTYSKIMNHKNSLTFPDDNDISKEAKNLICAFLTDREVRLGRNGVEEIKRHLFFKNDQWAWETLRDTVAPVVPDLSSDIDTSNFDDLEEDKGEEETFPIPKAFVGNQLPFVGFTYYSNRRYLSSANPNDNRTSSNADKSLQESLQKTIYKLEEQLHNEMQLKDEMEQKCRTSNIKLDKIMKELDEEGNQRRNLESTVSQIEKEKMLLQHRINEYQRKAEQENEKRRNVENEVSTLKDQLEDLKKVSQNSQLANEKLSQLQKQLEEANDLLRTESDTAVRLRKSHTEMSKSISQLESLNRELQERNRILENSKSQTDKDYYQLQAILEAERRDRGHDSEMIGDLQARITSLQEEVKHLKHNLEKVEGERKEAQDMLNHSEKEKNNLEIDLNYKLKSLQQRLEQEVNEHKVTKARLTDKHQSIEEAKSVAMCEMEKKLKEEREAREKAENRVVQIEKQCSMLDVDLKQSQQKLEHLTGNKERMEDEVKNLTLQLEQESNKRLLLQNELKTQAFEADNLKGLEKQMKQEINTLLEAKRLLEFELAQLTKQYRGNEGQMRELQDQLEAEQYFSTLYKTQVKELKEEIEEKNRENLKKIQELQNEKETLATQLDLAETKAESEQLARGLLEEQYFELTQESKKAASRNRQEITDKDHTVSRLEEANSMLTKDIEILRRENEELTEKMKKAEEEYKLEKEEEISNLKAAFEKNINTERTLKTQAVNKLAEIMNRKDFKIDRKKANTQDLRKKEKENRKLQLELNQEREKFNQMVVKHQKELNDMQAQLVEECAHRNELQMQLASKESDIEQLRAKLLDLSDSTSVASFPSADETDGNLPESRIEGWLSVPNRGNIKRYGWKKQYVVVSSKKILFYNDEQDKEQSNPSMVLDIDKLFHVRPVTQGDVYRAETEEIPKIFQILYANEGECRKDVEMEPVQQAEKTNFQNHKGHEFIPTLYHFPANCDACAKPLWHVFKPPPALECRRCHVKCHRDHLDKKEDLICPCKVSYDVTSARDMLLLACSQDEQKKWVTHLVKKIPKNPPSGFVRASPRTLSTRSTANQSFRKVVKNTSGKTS

Row | Ki (JAK2) | Ki (ROCK I) | Ki (JAK3) | SMILES
1 | < 500 nM | 0.5 to 5 µM | < 500 nM | CCC(=O)N1CC[C@@H](Nc2c(Cl)cnc3[nH]ccc23)C1 [compound 176]
2 | < 500 nM | 0.5 to 5 µM | < 500 nM | CCCS(=O)(=O)N1CCCC(Nc2c(Cl)cnc3[nH]ccc23)C1 (stereo not drawn) [compound 177]
3 | < 500 nM | > 4 µM | < 500 nM | CCCS(=O)(=O)N1CC[C@H](Nc2c(Cl)cnc3[nH]ccc23)C1 [compound 178]
4 | < 500 nM | > 4 µM | < 500 nM | O=S(=O)(C1CC1)N1CC[C@H](Nc2c(Cl)cnc3[nH]ccc23)C1 [compound 179]
5 | < 500 nM | > 4 µM | < 500 nM | CCCS(=O)(=O)N1CC[C@@H](Nc2c(Cl)cnc3[nH]ccc23)C1 [compound 180]
6 | < 500 nM | 0.5 to 5 µM | < 500 nM | O=S(=O)(C1CC1)N1CCCC(Nc2c(Cl)cnc3[nH]ccc23)C1 (stereo not drawn) [compound 181]
7 | < 500 nM | 0.5 to 5 µM | < 500 nM | CS(=O)(=O)N1CCCC(Nc2c(Cl)cnc3[nH]ccc23)C1 (stereo not drawn) [compound 182]
8 | < 500 nM | > 4 µM | < 500 nM | O=S(=O)(C1CC1)N1CC[C@@H](Nc2c(Cl)cnc3[nH]ccc23)C1 [compound 183]
9 | < 500 nM | 0.5 to 5 µM | < 500 nM | CS(=O)(=O)N1CC[C@@H](Nc2c(Cl)cnc3[nH]ccc23)C1 [compound 184]
10 | < 500 nM | > 4 µM | < 500 nM | CS(=O)(=O)N1CC[C@H](Nc2c(Cl)cnc3[nH]ccc23)C1 [compound 185]
11 | < 500 nM | 0.5 to 5 µM | < 500 nM | O=C(CC(F)(F)F)N1CCCC(Nc2c(Cl)cnc3[nH]ccc23)C1 (stereo not drawn) [compound 186]
12 | < 500 nM | 0.5 to 5 µM | < 500 nM | O=C(CC(F)(F)F)N1CC[C@H](Nc2c(Cl)cnc3[nH]ccc23)C1 [compound 187]
13 | < 500 nM | 0.5 to 5 µM | < 500 nM | N#CCC(=O)N1CCCC(Nc2c(Cl)cnc3[nH]ccc23)C1 (stereo not drawn) [compound 188]
14 | < 500 nM | > 4 µM | 500 to 5000 nM | O=C(CC(F)(F)F)N1CC[C@@H](Nc2c(Cl)cnc3[nH]ccc23)C1 [compound 189]
15 | < 500 nM | 0.5 to 5 µM | < 500 nM | N#CCC(=O)N1CC[C@@H](Nc2c(Cl)cnc3[nH]ccc23)C1 [compound 190]
16 | < 500 nM | > 4 µM | < 500 nM | N#CCC(=O)N1CC[C@H](Nc2c(Cl)cnc3[nH]ccc23)C1 [compound 191]
17 | 500 to 5000 nM | > 4 µM | < 500 nM | O=C(CNc1nc(-c2ccnc3[nH]ccc23)ncc1F)NCC(F)(F)F [compound 192]
18 | 500 to 5000 nM | > 4 µM | 500 to 5000 nM | O=C(CCNc1nc(-c2ccnc3[nH]ccc23)ncc1F)NCC(F)(F)F [compound 193]
19 | > 5000 nM | > 4 µM | > 5000 nM | CC(C)(C)C(=O)Nc1ncccc1-c1ccnc2[nH]ccc12 [compound 194]
20 | > 5000 nM | > 4 µM | > 5000 nM | Nc1ncccc1-c1ccnc2[nH]ccc12 [compound 195]
21 | 500 to 5000 nM | > 4 µM | 500 to 5000 nM | O=C(CNc1nc(-c2ccnc3[nH]ccc23)nc2ccccc12)NCC(F)(F)F [compound 196]
22 | 500 to 5000 nM | > 4 µM | 500 to 5000 nM | O=C(CCNc1nc(-c2ccnc3[nH]ccc23)nc2ccccc12)NCC(F)(F)F [compound 197]
23 | 500 to 5000 nM | > 4 µM | 500 to 5000 nM | O=C(NCC(F)(F)F)[C@H]1CCCN1c1nc(-c2ccnc3[nH]ccc23)ncc1F [compound 198]
24 | 500 to 5000 nM | > 4 µM | < 500 nM | O=C(NCC(F)(F)F)[C@@H]1CCCN1c1nc(-c2ccnc3[nH]ccc23)ncc1F [compound 199]
